Assay results: patent publication US20260263450A1, “USE OF GLYT1 INHIBITOR IN TREATMENT OF ORGAN FIBROSIS” (TIANJIN MEDICAL UNIVERSITY, priority 2023, published 2026)

Key:
[1] = test system: A549 cells; assay: Western blot of pulmonary fibrosis-related indicators in the in vitro bleomycin-induced pulmonary fibrosis model; assay type: cell-based; details: 25 μM BLM + 190 nM GLYT1 IN for 72 h; compared with BLM group
Procedure: A bleomycin-induced pulmonary fibrosis model was established in vitro, with simultaneous intervention via a GLYT1 inhibitor.
For the in vitro bleomycin-induced pulmonary fibrosis model, A549 cells were divided into […] treatment groups: the NC group (control group: treated with normal saline), the BLM group (bleomycin-treated group: treated with 25 μM BLM for 72 h), and the BLM+GLYT1 IN group (bleomycin and glycine transporter 1 inhibitor-treated group: treated with 25 μM BLM for 72 h and 190 nM GLYT1 IN for 72 h).
Western blotting was used to detect the expression levels of pulmonary fibrosis-related indicators: collagen type I alpha 1 (col1α1), collagen type III alpha 1 (col3α1), collagen type IV alpha 1 (col4α1), E-cadherin (E-Cad), and α-SMA proteins.

[2] = test system: A549 cells; assay: CCK-8 cell proliferation and cytotoxicity analysis of A549 cells; assay type: cell-based; details: 72 h
From the text: A CCK-8 kit was used to detect cell proliferation and cytotoxicity. Its working principle is as follows: In the presence of an electron coupling reagent, WST-8 (chemical name: 2-(2-methoxy-4-nitrophenyl)-3-(4-nitrophenyl)-5-(2,4-disulfophenyl)-2H-tetrazolium monosodium salt) can be reduced by mitochondrial dehydrogenases to produce a highly water-soluble orange-yellow formazan product. The intensity of the color is proportional to cell proliferation and inversely proportional to cytotoxicity. […] The OD value measured at a wavelength of 450 nm via a microplate reader can indirectly reflect the number of viable cells.
The CCK-8 assay was used to detect the viability of A549 cells after treatment with different concentrations of BLM and GlyT1 inhibitor for 72 h. […] In this example, BLM, which maintained the viability of A549 cells at approximately 80%, was selected for stimulation, and A549 cells were stimulated with 25 μM BLM to establish the cell model. […] At a concentration of 380 nM, the viability of A549 cells was greater than 50%. To obtain stable experimental results more easily, 190 nM GLYT1 IN was selected as the treatment concentration in subsequent studies.

[3] = test system: bleomycin-induced pulmonary fibrosis; assay: Bleomycin-induced pulmonary fibrosis in mice; assay type: in vivo, C57BL/6J male mice; details: for collagen deposition in lung tissue (Masson staining): 1 mg/kg and 5 mg/kg BLM; for body weight: inhibitor 0.79 mg/kg per day by gavage for 14 days from day 14 after modeling
Procedure: The dosage was 0.79 mg/kg per day, and the administration route was intragastric gavage. When used, the drug was dissolved in H2O containing 0.3% Tween 80.
C57BL/6J male mice (8-10 weeks old, weighing 24-25 g) were purchased from Beijing Huafukang Biotechnology Co., Ltd. The mice were housed in a specific pathogen-free (SPF) environment, with the room temperature maintained at 20-25° C. and the humidity controlled at 50-60%. The mice were fed normally, and the light was adjusted to a 12 h light/dark cycle. Before modeling, the mice were acclimatized to the corresponding environment for 1 week. All animal experiments were conducted in compliance with the animal care regulations and guidelines of Tianjin Medical University and were approved by the Animal Committee of Tianjin Medical University.
1. Prediluted bleomycin was prepared, and doses of 1 mg/kg and 5 mg/kg were administered on the basis of the body weights of the mice.
7. The mouse's tongue was gently pulled to one side toward the mandible with sterile padded forceps to expose the vocal cords; then, the pipette tip loaded with bleomycin was lowered to the back of the oral cavity, and the liquid was delivered through the vocal cords during inhalation. The sounds of wheezing were waited to confirm that the liquid was delivered into the trachea. For animals in the control group, an equal volume of sterile PBS was used instead of the bleomycin solution.
10. The mice were monitored daily until they were euthanized for analysis. RG1678 or water containing 0.3% Tween 80 was added to the mice by gavage every day according to their groupings.
11. When the experiment reached the appropriate time point, the mice were euthanized, their eyeballs were removed for blood collection, and then the mice were dissected to collect samples.
Mice in different groups were generated according to the abovementioned methods. The mice in the control group were given normal saline, while the mice in the experimental groups were given bleomycin at different concentrations. Fourteen days after modeling, the mice were intragastrically administered either ddH2O containing 0.3% Tween 80 or RG1678 prepared in ddH2O containing 0.3% Tween 80 via continuous gavage for 14 days; the specific experimental conditions are shown in Table 1.
1. Bleomycin stock solution (10 mg/mL): First, 10 mg of bleomycin was weighed and dissolved in 1 mL of 0.9% sodium chloride. The instillation volume for each mouse was calculated on the basis of its body weight, with the instillation volume per mouse being approximately 50 μL. The stock solution was diluted to 0.5 mg/mL and 2.5 mg/mL for subsequent instillation according to the different groups (1 mg/kg and 5 mg/kg).
3. RG1678 (0.79 mg/mL): An appropriate amount of RG1678 was dissolved in ddH2O containing 0.3% Tween 80 to prepare a stock working solution of 0.79 mg/mL. The intragastric administration volume was then calculated on the basis of the mouse's body weight, with approximately 200 μL per mouse. Before use, the stock solution was diluted to a working concentration of […].
The body weights of the mice were measured before modeling, and their body weights were monitored daily during the experiment to observe changes. A comparison was made between the body weight at the end of the experiment and that at the beginning.
To further observe lung tissue damage in mice in detail, pathological detection was performed on the mouse lung tissues in this example.
Masson staining was performed on mouse lung tissue sections. Masson staining is an experimental method used to detect the secretion and deposition levels of collagen fibers in tissues. After treatment with different staining solutions, the overall background of the tissue section appeared red, the cell nuclei were black, and the collagen fibers were blue. The content of collagen fibers can be evaluated on the basis of the depth of the blue color and the scope of its distribution. […]

[4] = intervention initiated 14 days after BLM modeling, lung paraffin sections
[5] = treatment for 14 days from day 14 after modeling, compared with BLM group

| Molecule | E-cadherin protein expression level [1] | col1α1 protein expression level [1] | col3α1 protein expression level [1] | col4α1 protein expression level [1] | α-SMA protein expression level [1] | viability of A549 cells ([2]; human, 380 nM) | collagen deposition in lung tissue (Masson staining) ([3]; compared with BLM group, listed as GLYT1 IN) | collagen deposition in lung tissue (Masson staining) ([3]; compared with BLM group, listed as GlyT1 inhibitor 1) | body weight ([3]; BLM 1 or 5 mg/kg, compared with BLM group) | body weight ([3]; BLM 1 or 5 mg/kg, compared with BLM group, listed as GLYT1 IN) | change in lung weight/body weight ratio ([3]; BLM 1 or 5 mg/kg, inhibitor by gavage for 14 days from day 14 after modeling, compared with BLM group (**P<0.01, ***P<0.001)) | general condition changes after modeling (delayed responses, huddling, trembling, cyanosis, decreased food intake, wrinkled skin) ([3]; BLM+RG1678 group compared with BLM group) | BLM-induced lung tissue consolidation (HE staining) [3, 4] | degree of fibrosis (HE staining) [3, 4] | collagen deposition in lung tissue (Sirius Red staining) ([3]; intervention initiated 14 days after modeling, compared with BLM stimulation) | deposition of type I collagen in lung tissue (immunohistochemistry) [3, 5] | deposition of type III collagen in lung tissue (immunohistochemistry) [3, 5] | viability of A549 cells ([2]; 10 μM bleomycin) | viability of A549 cells ([2]; 25 μM BLM) | viability of A549 cells with increasing concentrations ([2]; increasing concentrations) |
| --- | --- | --- | --- | --- | --- | --- | --- | --- | --- | --- | --- | --- | --- | --- | --- | --- | --- | --- | --- | --- |
| C[C@H](Oc1ccc(S(C)(=O)=O)cc1C(=O)N1CCN(c2ncc(C(F)(F)F)cc2F)CC1)C(F)(F)F [RG1678] | significantly increased | significantly decreased | significantly decreased | significantly decreased | significantly decreased | greater than 50% | not obvious | significantly reduce | less pronounced decrease | significantly greater | significantly alleviated | milder degrees | reduced | significantly alleviated | significantly reduced | significantly lower | significantly lower |  |  |  |
| bleomycin |  |  |  |  |  |  |  |  |  |  |  |  |  |  |  |  |  | significantly affected | approximately 80% | decreased |
